Assay results: patent US11229203B2, “Method of formulation of combined microbe and agricultural chemistry, microbe-derivative composition, and use of same” (priority 2017, dated 2022)

Tests used:
plant = assay: Plant growth and productivity with 1-octen-3-ol in aerial solution or as seed treatment; format: in vivo; conditions: very low concentrations in aerial solution; duplicated by seed treatments at low concentrations
Description: Applicants have begun evaluating the triggering molecules released in the rhizosphere since applicants expected that they might have both commercial and basic scientific uses. The expectation was they would have beneficial effects upon plants.

seeds = assay: Field trials and large-scale laboratory tests of seed treatments; format: in vivo; conditions: seeds treated with formulations containing only 0.7 μl/seed
Description: Applicants expected that this compound as well as other microbial metabolites would have transitory but beneficial effects on plant growth, resistance to stresses and other advantages. However, as field trials were developed and conducted on seed treatments with this compound in field and large-scale laboratory tests, the effects were discovered to be neither transitory nor small.

## C=CC(O)CCCCC (centres unmarked) [Trichoderma 1-octen-3-ol, 1-octen-3-ol]
plant
  Effect on plant growth and productivity: enhances plant growth and productivity
seeds
  Duration of effects after seed treatment: season long effects were observed
